Results: US12570650B2, “6-substituted pyridazine compounds as SMARCA2 and/or SMARCA4 degraders” (Aurigene Oncology Limited, priority 2020, dated 2026)

Key:
SMARCA2 = target: T1, SMARCA2 (Homo sapiens, UniProt P51531); assay: SMARCA2 degradation in VCaP cells by Western blot; format: cell-based; conditions: 16 hours
T1 construct: Determination of SMARCA2 and SMARCA4 Degradation in VCaP Cells by Western Blot; endogenous in cells; host or cells: VCaP (ATCC CRL-2876)
Procedure: Example-P2: Determination of SMARCA2 and SMARCA4 Degradation in VCaP Cells by Western Blot
VCaP (ATCC CRL-2876) was plated in 6 well plates using complete Dulbecco's Modified Eagle's Medium. On the third day, compounds of present invention were added to cells from 10 mM stocks made in DMSO (Sigma Cat no. D2650). Each concentration of compound was tested with DMSO not exceeding final percentage of 0.3 in the cells. Cells were incubated with the compound for 16 hours followed by harvesting with 1×RIPA lysis buffer (Thermo Fischer, catalogue number #89900) containing protease inhibitor cocktail (Sigma catalogue number #P-8340). Equal amount of protein was loaded on SDS PAGE gel for electrophoresis. Western blot was carried out for detection of either SMARCA2 (Cell signalling technologies, catalogue number #11966) or SMARCA4 antibody (Cell signalling technologies, catalogue number #52251). Beta-Tubulin antibody (Cell signalling technologies, catalogue number #86298) was used as loading control. Percentage of SMARCA2 or SMARCA4 degradation was calculated using formula % Degradation=100−(normalized band intensity in treated sample/normalized band intensity in DMSO sample)*100.

SMARCA4 = target: T2, SMARCA4 (Homo sapiens, UniProt P51532); assay: SMARCA4 degradation in VCaP cells by Western blot; format: cell-based; conditions: 16 hours
T2 construct: Determination of SMARCA2 and SMARCA4 Degradation in VCaP Cells by Western Blot; endogenous in cells; host or cells: VCaP (ATCC CRL-2876)
Procedure: On the third day, compounds of present invention were added to cells from 10 mM stocks made in DMSO (Sigma Cat no. D2650). Each concentration of compound was tested with DMSO not exceeding final percentage of 0.3 in the cells. […] Equal amount of protein was loaded on SDS PAGE gel for electrophoresis. […] Percentage of SMARCA2 or SMARCA4 degradation was calculated using formula % Degradation=100−(normalized band intensity in treated sample/normalized band intensity in DMSO sample)*100.

T1 sequence (P51531 whole entry): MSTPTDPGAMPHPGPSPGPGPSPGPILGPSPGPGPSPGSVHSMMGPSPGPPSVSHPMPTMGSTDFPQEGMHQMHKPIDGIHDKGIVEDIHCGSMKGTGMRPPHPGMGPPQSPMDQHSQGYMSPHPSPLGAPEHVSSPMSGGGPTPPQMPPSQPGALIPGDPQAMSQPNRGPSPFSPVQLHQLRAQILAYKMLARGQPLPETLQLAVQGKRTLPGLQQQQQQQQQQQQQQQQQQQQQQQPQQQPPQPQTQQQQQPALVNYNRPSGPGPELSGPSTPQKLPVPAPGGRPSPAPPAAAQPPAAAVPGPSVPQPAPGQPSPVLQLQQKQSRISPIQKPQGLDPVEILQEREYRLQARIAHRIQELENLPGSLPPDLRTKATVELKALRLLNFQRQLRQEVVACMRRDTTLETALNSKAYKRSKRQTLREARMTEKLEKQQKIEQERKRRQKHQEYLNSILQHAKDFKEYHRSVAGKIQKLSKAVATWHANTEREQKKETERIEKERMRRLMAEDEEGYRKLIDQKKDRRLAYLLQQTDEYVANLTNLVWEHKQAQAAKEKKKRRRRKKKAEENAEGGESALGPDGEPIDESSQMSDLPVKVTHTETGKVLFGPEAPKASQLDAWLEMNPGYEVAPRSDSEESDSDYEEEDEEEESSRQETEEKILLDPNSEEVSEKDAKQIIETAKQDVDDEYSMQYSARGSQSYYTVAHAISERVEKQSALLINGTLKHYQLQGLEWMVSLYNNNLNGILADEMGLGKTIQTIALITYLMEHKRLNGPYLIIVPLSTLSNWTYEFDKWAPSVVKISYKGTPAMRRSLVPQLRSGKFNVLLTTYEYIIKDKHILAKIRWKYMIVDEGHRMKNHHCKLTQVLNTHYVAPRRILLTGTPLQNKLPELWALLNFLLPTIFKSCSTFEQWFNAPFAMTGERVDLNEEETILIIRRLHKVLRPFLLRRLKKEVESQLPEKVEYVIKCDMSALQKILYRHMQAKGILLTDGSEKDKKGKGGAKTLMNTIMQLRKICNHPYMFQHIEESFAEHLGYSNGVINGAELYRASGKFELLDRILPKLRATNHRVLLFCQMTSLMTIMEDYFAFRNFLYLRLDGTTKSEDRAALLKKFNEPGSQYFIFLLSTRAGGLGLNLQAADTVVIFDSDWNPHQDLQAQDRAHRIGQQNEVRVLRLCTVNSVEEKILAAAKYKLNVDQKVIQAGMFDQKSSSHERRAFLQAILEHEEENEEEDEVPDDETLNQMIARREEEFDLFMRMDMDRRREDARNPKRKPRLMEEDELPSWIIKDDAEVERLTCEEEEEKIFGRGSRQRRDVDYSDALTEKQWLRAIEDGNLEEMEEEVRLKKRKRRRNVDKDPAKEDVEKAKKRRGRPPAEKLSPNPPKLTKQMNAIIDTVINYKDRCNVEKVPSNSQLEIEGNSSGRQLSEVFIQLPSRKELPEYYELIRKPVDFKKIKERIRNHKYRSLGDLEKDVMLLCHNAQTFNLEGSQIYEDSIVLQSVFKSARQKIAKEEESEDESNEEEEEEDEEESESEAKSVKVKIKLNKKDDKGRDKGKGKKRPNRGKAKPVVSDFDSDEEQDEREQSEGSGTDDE
T2 sequence (P51532 whole entry): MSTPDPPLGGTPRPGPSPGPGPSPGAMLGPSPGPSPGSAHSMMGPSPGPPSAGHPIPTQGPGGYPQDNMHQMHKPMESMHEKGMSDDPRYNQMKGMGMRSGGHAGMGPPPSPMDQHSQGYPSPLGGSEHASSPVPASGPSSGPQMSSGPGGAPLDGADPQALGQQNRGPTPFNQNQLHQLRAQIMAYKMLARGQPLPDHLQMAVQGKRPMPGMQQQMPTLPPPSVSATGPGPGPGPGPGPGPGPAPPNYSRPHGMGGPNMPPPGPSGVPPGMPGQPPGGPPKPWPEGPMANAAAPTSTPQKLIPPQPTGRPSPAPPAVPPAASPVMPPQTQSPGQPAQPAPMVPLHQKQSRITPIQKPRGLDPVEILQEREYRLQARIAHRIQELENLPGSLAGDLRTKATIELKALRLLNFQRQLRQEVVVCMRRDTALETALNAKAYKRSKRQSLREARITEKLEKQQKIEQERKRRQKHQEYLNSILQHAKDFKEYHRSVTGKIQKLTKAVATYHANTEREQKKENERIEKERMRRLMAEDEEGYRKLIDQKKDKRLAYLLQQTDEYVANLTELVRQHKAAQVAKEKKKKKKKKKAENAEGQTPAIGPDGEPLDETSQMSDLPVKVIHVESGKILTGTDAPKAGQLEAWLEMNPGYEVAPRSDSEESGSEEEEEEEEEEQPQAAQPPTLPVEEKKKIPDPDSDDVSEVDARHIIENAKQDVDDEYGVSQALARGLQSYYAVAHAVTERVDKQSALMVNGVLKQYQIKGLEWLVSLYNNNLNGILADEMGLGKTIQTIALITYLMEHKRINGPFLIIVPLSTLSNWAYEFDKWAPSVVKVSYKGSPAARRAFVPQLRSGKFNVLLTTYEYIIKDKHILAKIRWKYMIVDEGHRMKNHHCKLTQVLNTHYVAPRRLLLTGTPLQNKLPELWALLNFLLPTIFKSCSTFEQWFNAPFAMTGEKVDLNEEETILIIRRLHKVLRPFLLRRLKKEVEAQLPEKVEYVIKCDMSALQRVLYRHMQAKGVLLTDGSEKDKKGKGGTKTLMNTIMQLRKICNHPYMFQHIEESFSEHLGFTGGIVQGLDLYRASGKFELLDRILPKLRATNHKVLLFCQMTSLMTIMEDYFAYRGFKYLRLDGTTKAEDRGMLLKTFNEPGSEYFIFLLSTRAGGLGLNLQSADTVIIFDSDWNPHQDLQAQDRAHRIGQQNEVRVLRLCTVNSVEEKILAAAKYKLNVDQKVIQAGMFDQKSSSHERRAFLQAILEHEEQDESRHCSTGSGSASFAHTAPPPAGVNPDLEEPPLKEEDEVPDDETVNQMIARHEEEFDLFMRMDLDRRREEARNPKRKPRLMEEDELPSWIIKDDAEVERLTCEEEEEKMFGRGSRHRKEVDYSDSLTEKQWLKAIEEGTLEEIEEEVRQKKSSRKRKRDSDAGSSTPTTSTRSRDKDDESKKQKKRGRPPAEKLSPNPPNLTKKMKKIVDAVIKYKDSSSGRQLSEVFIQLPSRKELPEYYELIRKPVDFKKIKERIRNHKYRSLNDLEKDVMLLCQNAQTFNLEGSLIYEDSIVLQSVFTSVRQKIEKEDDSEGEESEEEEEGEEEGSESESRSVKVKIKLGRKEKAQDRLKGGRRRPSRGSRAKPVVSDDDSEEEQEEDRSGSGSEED

Structure (SMILES) | Percent degradation (at 100 nM) SMARCA2 (SMARCA2) | Percent degradation (at 100 nM) SMARCA4 (SMARCA4)
Cc1ncsc1-c1ccc([C@H](C)NC(=O)[C@@H]2C[C@@H](O)CN2C(=O)C(c2cc(-c3ccc(-c4cnnc(-c5ccccc5O)c4)cc3)no2)C(C)C)cc1 (mixture of isomers) [Compound 1, (2S,4R)-4-hydroxy-1-(2-(3-(4-(6-(2-hydroxyphenyl)pyridazin-4-yl)phenyl)isoxazol-5-yl)-3-methylbutanoyl)-N-((S)-1-(4-(4-methylthiazol-5-yl)phenyl)ethyl)pyrrolidine-2-carboxamide] | 0% | 30%
Cc1ncsc1-c1ccc([C@H](C)NC(=O)[C@@H]2C[C@@H](O)CN2C(=O)C(c2cc(OCCN(C)c3ccc(-c4cnnc(-c5ccccc5O)c4)cc3)no2)C(C)C)cc1 (mixture of isomers) [Compound 44, (2S,4R)-4-hydroxy-1-(2-(3-(2-((4-(6-(2-hydroxyphenyl)pyridazin-4-yl)phenyl)(methyl)amino)ethoxy)isoxazol-5-yl)-3-methylbutanoyl)-N-((S)-1-(4-(4-methylthiazol-5-yl)phenyl)ethyl)pyrrolidine-2-carboxamide] | 22% | 6%
Cc1ncsc1-c1ccc([C@H](C)NC(=O)[C@@H]2C[C@@H](O)CN2C(=O)[C@@H](NC(=O)C(C)N2CCN(c3ccc(-c4cnnc(-c5ccccc5O)c4)cc3)CC2)C(C)(C)C)cc1 (single isomer, unassigned) [Compound 29] | 40% | 0%
Cc1ncsc1-c1ccc([C@H](C)NC(=O)[C@@H]2C[C@@H](O)CN2C(=O)[C@@H](NC(=O)CN2CCN(c3ccc(-c4cnnc(Cl)c4)cc3)CC2)C(C)(C)C)cc1 [Compound 3, (2S,4R)-1-((S)-2-(2-(4-(4-(6-chloropyridazin-4-yl)phenyl)piperazin-1-yl)acetamido)-3,3-dimethylbutanoyl)-4-hydroxy-N-((S)-1-(4-(4-methylthiazol-5-yl)phenyl)ethyl)pyrrolidine-2-carboxamide] | 20% | 47%
Cc1ncsc1-c1ccc([C@H](C)NC(=O)[C@@H]2C[C@@H](O)CN2C(=O)[C@@H](NC(=O)CN2CCN(c3ccc(-c4cnnc(-c5cc(F)ccc5O)c4)cc3)CC2)C(C)(C)C)cc1 [Compound 4, (2S,4R)-1-((S)-2-(2-(4-(4-(6-(5-fluoro-2-hydroxyphenyl)pyridazin-4-yl)phenyl)piperazin-1-yl)acetamido)-3,3-dimethylbutanoyl)-4-hydroxy-N-((S)-1-(4-(4-methylthiazol-5-yl)phenyl)ethyl)pyrrolidine-2-carboxamide] | 81% | 0%
Cc1ncsc1-c1ccc([C@H](C)NC(=O)[C@@H]2C[C@@H](O)CN2C(=O)[C@@H](NC(=O)CCN2CCN(c3ccc(-c4cnnc(-c5ccccc5O)c4)cc3)CC2)C(C)(C)C)cc1 [Compound 8, (2S,4R)-4-hydroxy-1-((S)-2-(3-(4-(4-(6-(2-hydroxyphenyl)pyridazin-4-yl)phenyl)piperazin-1-yl)propanamido)-3,3-dimethylbutanoyl)-N-((S)-1-(4-(4-methylthiazol-5-yl)phenyl)ethyl)pyrrolidine-2-carboxamide] | 84% | 20%
Cc1ncsc1-c1ccc([C@H](C)NC(=O)[C@@H]2C[C@@H](O)CN2C(=O)[C@@H](NC(=O)CN2CCN(c3ccc(-c4cnnc(-c5cnn(C)c5)c4)cc3)CC2)C(C)(C)C)cc1 [Compound 9, (2S,4R)-1-((S)-3,3-dimethyl-2-(2-(4-(4-(6-(1-methyl-1H-pyrazol-4-yl)pyridazin-4-yl)phenyl)piperazin-1-yl)acetamido)butanoyl)-4-hydroxy-N-((S)-1-(4-(4-methylthiazol-5-yl)phenyl)ethyl)pyrrolidine-2-carboxamide] | 0% | 14%
Cc1ncsc1-c1ccc([C@H](C)NC(=O)[C@@H]2C[C@@H](O)CN2C(=O)[C@@H](NC(=O)CN2CCC(Oc3ccc(-c4cnnc(-c5ccccc5O)c4)cc3)CC2)C(C)(C)C)cc1 [Compound 19, (2S,4R)-4-hydroxy-1-((S)-2-(2-(4-(4-(6-(2-hydroxyphenyl)pyridazin-4-yl)phenoxy)piperidin-1-yl)acetamido)-3,3-dimethylbutanoyl)-N-((S)-1-(4-(4-methylthiazol-5-yl)phenyl)ethyl)pyrrolidine-2-carboxamide] | 88% | 0%
Cc1ncsc1-c1ccc([C@H](C)NC(=O)[C@@H]2C[C@@H](O)CN2C(=O)[C@@H](NC(=O)CN2CCN(c3ccc(-c4cnnc(-c5ccccc5O)c4)cc3F)CC2)C(C)(C)C)cc1 [Compound 26, (2S,4R)-1-((S)-2-(2-(4-(2-fluoro-4-(6-(2-hydroxyphenyl)pyridazin-4-yl)phenyl)piperazin-1-yl)acetamido)-3,3-dimethylbutanoyl)-4-hydroxy-N-((S)-1-(4-(4-methylthiazol-5-yl)phenyl)ethyl)pyrrolidine-2-carboxamide] | 89% | 0%
Cc1ncsc1-c1ccc([C@H](C)NC(=O)[C@@H]2C[C@@H](O)CN2C(=O)[C@@H](NC(=O)CN2CCC(n3cc(-c4cnnc(-c5ccccc5O)c4)cn3)CC2)C(C)(C)C)cc1 [Compound 33, (2S,4R)-4-hydroxy-1-((S)-2-(2-(4-(4-(6-(2-hydroxyphenyl)pyridazin-4-yl)-1H-pyrazol-1-yl)piperidin-1-yl)acetamido)-3,3-dimethylbutanoyl)-N-((S)-1-(4-(4-methylthiazol-5-yl)phenyl)ethyl)pyrrolidine-2-carboxamide] | 69% | 0%
Cc1ncsc1-c1ccc([C@H](C)NC(=O)[C@@H]2C[C@@H](O)CN2C(=O)[C@@H](NC(=O)CCCCOc2ccc(-c3cnnc(-c4ccccc4O)c3)cc2)C(C)(C)C)cc1 [Compound 34, (2S,4R)-4-hydroxy-1-((S)-2-(5-(4-(6-(2-hydroxyphenyl)pyridazin-4-yl)phenoxy)pentanamido)-3,3-dimethylbutanoyl)-N-((S)-1-(4-(4-methylthiazol-5-yl)phenyl)ethyl)pyrrolidine-2-carboxamide] | 81% | 58%
Cc1ncsc1-c1ccc([C@H](C)NC(=O)[C@@H]2C[C@@H](O)CN2C(=O)[C@@H](NC(=O)CN2CCN(c3ccc(-c4cnnc(-c5ccccc5C(F)F)c4)cc3)CC2)C(C)(C)C)cc1 [Compound 37, (2S,4R)-1-((S)-2-(2-(4-(4-(6-(2-(difluoromethyl)phenyl)pyridazin-4-yl)phenyl)piperazin-1-yl)acetamido)-3,3-dimethylbutanoyl)-4-hydroxy-N-((S)-1-(4-(4-methylthiazol-5-yl)phenyl)ethyl)pyrrolidine-2-carboxamide] | 45% | 26%
